Source: patent US20240122180A1, “FUNGICIDAL HALOMETHYL KETONES AND HYDRATES AND THEIR MIXTURES” (FMC Corporation, priority 2020, published 2024)
Marks after values point to notes of the source that are not given here.

Experiments:
Type in all cases: in vivo
Settings in all cases: 100 = 100% disease control
[1] = tested on: Phakopsora pachyrhizi (the causal agent of Asian soybean rust); assay: Test A: preventive spray on soybean seedlings, visual disease rating (100 = 100% control; * 50 ppm, ** 10 ppm, *** 250 ppm)
Procedure, shortened: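 Soybean seedlings sprayed to run-off with compound suspended in acetone/water with 250 ppm PEG400 surfactant, inoculated next day with P. pachyrhizi spores. Kept 24 h saturated at 22 °C, then 8 days at 22 °C before visual rating of disease control (0-100) relative to controls.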

[2] = tested on: Puccinia recondita f. sp. tritici (the causal agent of wheat leaf rust); assay: Test B: preventive spray on wheat seedlings, disease rating (100 = 100% control; * 50 ppm, ** 10 ppm, *** 250 ppm)
Procedure, shortened: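 Wheat seedlings sprayed to run-off with compound in acetone/water (50/50) containing 250 ppm PEG400, inoculated next day with Puccinia recondita f. sp. tritici spores. Held 24 h saturated at 20° C, then 6 days at 20° C; disease control rated 0–100 relative to controls.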

[3] = tested on: Uncinula necator (the causal agent of grape powdery mildew); assay: Test C: preventive spray on grape seedlings, disease rating (100 = 100% control; * 50 ppm, ** 10 ppm, *** 250 ppm)
Description: General protocol for preparing test suspensions for Tests A-E: the test compounds were first dissolved in acetone in an amount equal to 3% of the final volume and then suspended at the desired concentration (in ppm) in acetone and purified water (50/50 mix by volume) containing 250 ppm of the surfactant […] (polyhydric alcohol esters). The resulting test suspensions were then used in Tests A-E.
The test solution was sprayed to the point of run-off on grape seedlings. The following day the seedlings were inoculated with a spore suspension of Uncinula necator (the causal agent of grape powdery mildew) and incubated in a growth chamber at 20° C. for 12 days, after which time disease ratings were made.
Results for Tests A-E are given in Table A. In the Table, a rating of 100 indicates 100% disease control and a rating of 0 indicates no disease control (relative to the controls). An asterisk “*” or a double asterisk “**” or a triple asterisk “***” next to the rating value indicates a 50 ppm, 10 ppm and 250 ppm test suspension was used, respectively. A dash (-) indicates the compound was not tested.

[4] = tested on: Zymoseptoria tritici (the causal agent of wheat leaf blotch); assay: Test D: preventive spray on wheat seedlings, disease rating (100 = 100% control; * 50 ppm, ** 10 ppm, *** 250 ppm)
Procedure, shortened: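 Compounds first dissolved in acetone (3% of final volume), then suspended in 50/50 acetone/water with 250 ppm PEG400 and sprayed to run-off on wheat seedlings; Z. tritici spores inoculated next day. Incubated saturated at 24° C. 48 h, then 20° C. 17 days; disease control rated 0–100 versus controls.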

[5] = tested on: Blumeria graminis f. sp. tritici (the causal agent of wheat powdery mildew); assay: Test E: preventive spray on wheat seedlings, visual disease rating (100 = 100% control; * 50 ppm, ** 10 ppm, *** 250 ppm)
Procedure, shortened: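 Test suspension (3% acetone, acetone/water 50/50, 250 ppm PEG400) sprayed to run-off on wheat seedlings; inoculated next day with powdery mildew spore dust and kept 8 days at 20 °C. Visual rating, 100 = full and 0 = no control relative to untreated.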

[6] = 10 ppm test suspension, soybean seedlings
[7] = 10 ppm test suspension, wheat seedlings
[8] = 250 ppm test suspension, grape seedlings
[9] = 250 ppm test suspension, wheat seedlings
[10] = 10 ppm test suspension, 0 = no control
[11] = 250 ppm test suspension, 0 = no control
[12] = 50 ppm test suspension, 0 = no control

| SMILES | Test A disease control rating [1, 10] [%] | Test B disease control rating [2, 10] [%] | Test C disease control rating [3, 11] | Test D disease control rating [4, 11] | Test E disease control rating [5, 11] | Test A disease control rating [1, 12] [%] | Test B disease control rating [2, 12] [%] | other results |
| --- | --- | --- | --- | --- | --- | --- | --- | --- |
| O=C(NCC1CC1)c1cnc(Cc2ccc(OCC3(C(F)(F)F)OCCO3)cc2)o1 [compound 248] | – | – | – | – | – | – | – | Test A disease control rating [1, 6]: 71%; Test B disease control rating [2, 7]: 0%; Test C disease control rating [3, 8]: 62*** %; Test D disease control rating [4, 9]: 93*** %; Test E disease control rating [5, 9]: 89*** % |
| CCO/C(=C\Oc1ccc(Cc2ncc(C(=O)NCC3CC3)s2)cc1)C(F)(F)F [compound 254] | – | – | – | – | – | – | – | Test A disease control rating [1, 6]: 73%; Test B disease control rating [2, 7]: 0%; Test C disease control rating [3, 8]: 10*** %; Test D disease control rating [4, 9]: 67*** %; Test E disease control rating [5, 9]: 56*** % |
| CCO/C(=C\Oc1ccc(Cc2ncc(C(=O)NCC(F)F)o2)cc1)C(F)(F)F [compound 255] | – | – | – | – | – | – | – | Test A disease control rating [1, 6]: 89%; Test B disease control rating [2, 7]: 0%; Test C disease control rating [3, 8]: 93*** %; Test D disease control rating [4, 9]: 60*** %; Test E disease control rating [5, 9]: 64*** % |
| O=C(NCC1CC1)c1cnc(Cc2ccc(OCC(O)(O)C(F)(F)F)cc2)s1 [compound 256] | – | – | – | – | – | – | – | Test A disease control rating [1, 6]: 73%; Test B disease control rating [2, 7]: 0%; Test C disease control rating [3, 8]: 15*** %; Test D disease control rating [4, 9]: 95*** %; Test E disease control rating [5, 9]: 82*** % |
| O=C(NCC(F)(F)F)c1cnc(Cc2ccc(OCC3(C(F)(F)F)OCCO3)cc2)o1 [compound 257] | 54 | 0 | 81*** % | 35*** % | 92*** % | – | – | – |
| CCO/C(=C\Oc1ccc(Cc2ncc(C(=O)NCC3CC3)o2)cc1)C(F)(F)F [compound 258] | 96 | 0 | 64*** % | 13*** % | 53*** % | – | – | – |
| O=C(NCC1CC1)c1cnc(Cc2ccc(OCC3(C(F)(F)F)OCCO3)cc2)s1 [compound 259] | 25 | 0 | 31*** % | 88*** % | 83*** % | – | – | – |
| CCO/C(=C\Oc1ccc(Cc2ncc(C(=O)NCC(F)F)s2)cc1)C(F)(F)F [compound 276] | 13 | 0 | – | 53*** % | 86*** % | – | – | Test C disease control rating [3, 12]: 100* % |
| CCOC(=O)c1cnn(-c2ccc(O/C=C(\OCC)C(F)(F)F)cc2)c1 [compound 316] | – | – | – | – | – | 100 | 9 | Test C disease control rating [3, 12]: 100%; Test D disease control rating [4, 12]: 2%; Test E disease control rating [5, 12]: 73% |
| OC(O)(COc1ccc(Cn2cc(Br)cn2)cc1)C(F)(F)F [compound 322] | 99 | 86 | 48*** % | 100*** % | 97*** % | – | – | – |
| CCOC(=COc1ccc(C2CN(C(C)=O)C2)cc1)C(F)(F)F [compound 373] | – | – | 56*** % | 99*** % | 98*** % | 81 | 0 | – |
| CCOC(=O)c1cnn(Cc2ccc(O/C=C(\OCC)C(F)(F)F)cc2F)c1 [compound 375] | – | – | 66*** % | 95*** % | 99*** % | 100 | 0 | – |
| CCOC(=COc1ccc(OC(=O)c2ccccc2F)cc1)C(F)(F)F [compound 379] | – | – | 93*** % | 0*** % | 21*** % | 0 | 0 | – |
| CCS(=O)(=O)N1CC(c2ccc(OCC3(C(F)(F)F)OCCO3)cc2)C1 [compound 382] | – | – | 22*** % | 4*** % | 56*** % | 0 | 0 | – |
| CCOC(=COc1ccc(C2CN(S(=O)(=O)CC)C2)cc1)C(F)(F)F [compound 383] | – | – | 74*** % | 0*** % | 0*** % | 0 | 0 | – |
| CCO/C(=C\Oc1cccc(Cn2cc(C(=O)NCC3CC3)cn2)c1)C(F)(F)F [compound 393] | – | – | 63*** % | 69*** % | 0*** % | 38 | 0 | – |
| CCO/C(=C\Oc1cccc(Cn2cc(C(=O)NCC(F)F)cn2)c1)C(F)(F)F [compound 394] | – | – | 75*** % | 24*** % | 0*** % | 0 | 0 | – |
| CCO/C(=C\Oc1cccc(Cn2cc(C(=O)NCC(F)(F)F)cn2)c1)C(F)(F)F [compound 401] | 0 | 0 | 35*** % | 0*** % | 0*** % | – | – | – |
| CCO/C(=C\Oc1cccc(Cn2cc(C(=O)N(CC)CC)cn2)c1)C(F)(F)F [compound 404] | – | – | 44*** % | 11*** % | 0*** % | 0 | 0 | – |
| CCOC(=O)c1cnn(Cc2ccc(O/C=C(\OCC)C(F)(F)F)c(C)c2)c1 [compound 410] | 100 | 0 | 88*** % | 11*** % | 13*** % | – | – | – |
| CCO/C(=C\Oc1ccc(Cn2cc(C(=O)NC3CC3)cn2)cc1)C(F)(F)F [compound 413] | 0 | 0 | 61*** % | 90*** % | 35*** % | – | – | – |
| CCO/C(=C\Oc1ccc(Cn2cc(C(=O)NC)cn2)cc1)C(F)(F)F [compound 414] | 45 | 0 | 91*** % | 97*** % | 90*** % | – | – | – |
| CCO/C(=C\Oc1cccc(Cn2cc(C(=O)NC(C)C)cn2)c1)C(F)(F)F [compound 415] | 0 | 0 | 9*** % | 0*** % | 0*** % | – | – | – |
| CCOC(=O)c1cnn(Cc2ccc(O/C=C(\OCC)C(F)(F)F)c(C#N)c2)c1 [compound 416] | – | – | 34*** % | 0*** % | 0*** % | 81 | 0 | – |
| CCO/C(=C\Oc1ccc(Cn2cc(C(=O)NCC(=O)OC)cn2)cc1)C(F)(F)F [compound 427] | 13 | 0 | 5*** % | 53*** % | 29*** % | – | – | – |
| CCO/C(=C\Oc1ccc(Cn2cc(C(=O)NC3CCCC3)cn2)cc1)C(F)(F)F [compound 428] | 0 | 0 | 43*** % | 2*** % | 0*** % | – | – | – |
| CCOC(=O)c1cnn(Cc2ccc(O/C=C(\OCC)C(F)(F)F)c(F)c2F)c1 [compound 430] | – | – | 82*** % | 3*** % | 99*** % | 100 | 0 | – |
| CCO/C(=C\Oc1ccc(Cn2cc(C(=O)NCc3ncccn3)cn2)cc1)C(F)(F)F [compound 435] | – | – | 45*** % | 5*** % | 81*** % | 96 | 0 | – |
